Calls of active or inactive are those of the source. The calls are words filed in the database; no cut-off is given here.
Tests used:
T98 [1] = experiment: Effect on caspase 9 mRNA expression levels in human T98 cells at 50 to 100 uM by real-time PCR assay; type: functional, cell-based
[2] = Induction of apoptosis in human T98 cells assessed as total death rate at 100 uM after 24 hrs by Annexin-V-FITC/propidium iodide staining based flow cytometry analysis (reference value: 3.8 %); type: functional
T98 [3] = experiment: Effect on caspase 8 mRNA expression levels in human T98 cells at 50 to 100 uM by real-time PCR assay; type: functional, cell-based
T98 [4] = experiment: Induction of apoptosis in human T98 cells assessed as alive cells at 100 uM after 24 hrs by Annexin-V-FITC/propidium iodide staining based flow cytometry analysis (reference value: 95 +/- 5.6 %); type: functional
[5] = Reduction in Cox-2 mRNA expression levels in human T98 cells by real-time PCR assay; type: functional, cell-based
T98 [6] = experiment: Effect on cytochrome-c mRNA expression levels in human T98 cells at 50 to 100 uM by real-time PCR assay; type: functional, cell-based
[7] = Antiproliferative activity against human T98 cells assessed as reduction in survival rate at 50 uM after 24 hrs by MTT assay relative to control; type: functional
[8] = Induction of apoptosis in human T98 cells assessed as total death rate at 50 uM after 24 hrs by Annexin-V-FITC/propidium iodide staining based flow cytometry analysis (reference value: 3.8 %); type: functional
T98 [9] = experiment: Induction of apoptosis in human T98 cells assessed as late apoptotic cells at 50 uM after 24 hrs by Annexin-V-FITC/propidium iodide staining based flow cytometry analysis (reference value: 2.7 +/- 1.4 %); type: functional
[10] = Antiproliferative activity against human T98 cells assessed as reduction in survival rate at 100 uM after 24 hrs by MTT assay relative to control; type: functional
T98 [11] = experiment: Induction of apoptosis in human T98 cells assessed as alive cells at 50 uM after 24 hrs by Annexin-V-FITC/propidium iodide staining based flow cytometry analysis (reference value: 95 +/- 5.6 %); type: functional
T98 [12] = experiment: Induction of apoptosis in human T98 cells assessed as late apoptotic cells at 100 uM after 24 hrs by Annexin-V-FITC/propidium iodide staining based flow cytometry analysis (reference value: 2.7 +/- 1.4 %); type: functional
T98 [13] = experiment: Induction of apoptosis in human T98 cells assessed as early apoptotic cells at 50 uM after 24 hrs by Annexin-V-FITC/propidium iodide staining based flow cytometry analysis (reference value: 1.1 +/- 0.3 %); type: functional
T98 [14] = experiment: Induction of apoptosis in human T98 cells assessed as early apoptotic cells at 100 uM after 24 hrs by Annexin-V-FITC/propidium iodide staining based flow cytometry analysis (reference value: 1.1 +/- 0.3 %); type: functional
T98 [15] = experiment: Effect on caspase 3 mRNA expression levels in human T98 cells at 50 to 100 uM by real-time PCR assay; type: functional, cell-based
T98 [16] = experiment: Antiproliferative activity against human T98 cells assessed as reduction in survival rate at 1 to 100 uM after 24 hrs by MTT assay; type: functional, cell-based

## COc1ccc2c(c1)c(Cc1nnc3n1N=C(c1ccc(C)cc1)CS3)c(C)n2C(=O)c1ccc(Cl)cc1
T98 [1]
  Activity: inactive
[2]
  Activity: 59%
T98 [3]
  Activity: inactive
T98 [4]
  Activity: 31%
[5]
  Activity: Dose-dependent effect
T98 [6]
  Activity: inactive
[7]
  Activity: 25%
[8]
  Activity: 49%
T98 [9]
  Activity: 38%
[10]
  Activity: 40%
T98 [11]
  Activity: 39%
T98 [12]
  Activity: 47%
T98 [13]
  Activity: 11%
T98 [14]
  Activity: 12%
T98 [15]
  Activity: inactive
T98 [16]
  Activity: Active

— ChEMBL document CHEMBL3779878, “Indomethacin based new triazolothiadiazine derivatives: Synthesis, evaluation of their anticancer effects on T98 human glioma cell line related to COX-2 inhibition and docking studies” (2016)
